Test results reported in publication PMC7507342, “A Cell‐Free Platform Based on Nisin Biosynthesis for Discovering Novel Lanthipeptides and Guiding their Overproduction In Vivo” (Advanced Science, 2020).
Non-standard residues stand in square brackets, D forms with d. No end group written: not given here. Dhb = C/C=C(\N)C(=O)O; Dha = C=C(N)C(=O)O

Assays:
[1] = system: Micrococcus luteus NCIB 8166; experiment: Agar diffusion bioassay of CFPS mixture; assay type: cell-based; conditions: agar diffusion method; CFPS reaction 6 h
Method: We evaluated the performance of our CFPS platform for nisin biosynthesis. Each plasmid (0.5 nmol L^−1) (pJL1‐nisZ, pET28a‐nisB, pET28a‐nisC, and pET28a‐nisP) was added into the CFPS platform and incubated for 6 h (Figure 1A). The 400 µL of reaction mixture was concentrated to 20 µL and the concentrated mixture was then detected by tandem mass spectrometry (LC‐MS‐MS). The results confirmed that fully modified nisin Z was produced in the CFPS mixture (Figure 1B).
These hybrid precursor peptides were then cloned into the pJL1 plasmid. Bagelicin, a nisin analog with antibacterial activity that was identified using a previously described in vivo screening system,^[ ^5 ^] was chosen as the positive control for validation. The pJL1‐nisZ plasmid in our CFPS platform was replaced with the hybrid precursor peptide plasmids (pRL1‐pRL18 and pJL1‐bagelicin). After incubation for 6 h, the bagelicin CFPS mixture (positive control) was analyzed by LC‐MS‐MS and bioassays.
The activity levels of nisin and new lanthipeptides were determined by a previously described agar diffusion method, with minor modifications.^[ ^37 ^] Briefly, a stock nisin solution 1000 IU mL^−1) was prepared by adding 50 mg of commercial nisin (10^6 IU g^−1; Sigma‐Aldrich, St. Louis, MO, USA) into 50 mL of sterile 0.02 mol L^−1 HCl. […]

M. luteus = experiment: MIC determination in 96-well plates; assay type: cell-based, Micrococcus luteus; conditions: for MIC M. luteus: 96-well plate, bioassay medium, 5.0 × 10^5 CFU mL^−1, 37 °C, 24 h, OD600, n=3
Description: (§1) The CFPS system is for quick screening of potential antimicrobial lanthipeptides, and we then purified enough compounds of the screened nisin analogs for structure identification and activity assays. We prepared mLanAs for the novel lanthipeptides (RL6, RL8, RL13, and RL14) in E. coli (Table S2, Supporting Information) and removed their leader peptides in vitro, as it is more economical to mass produce targeted lanthipeptides using this previously reported method^[ ^4 ^] rather than to use CFPS to mass produce lanthipeptides. Nisin and most lanthipeptides are not pure products in the commercially available and standard products, they are a mixture of different dehydrating ingredients resulting from incomplete NisB catalysis. Therefore, we verified that the decisive antibacterial component in the currently commercially available nisin is the eightfold dehydrated component (Figure S5, Supporting Information). […] We treated the novel lanthipeptides with the thiol‐alkylating reagent N‐ethylmaleimide (NEM) to sequester any noncyclic Cys residues, and evaluated ring topology using LC‐MS (Figure S7, Supporting Information). […] We quantified these four novel lanthipeptides using the purified eight‐fold dehydrated component of nisin as a standard.
(§2) MICs were determined according to a previously described method^[ ^38 ^] with minor modifications. Briefly, the test medium for clinical strain species was MHB broth (BD Difco), LB broth was used for E. coli, and bioassay medium containing 1.2% tryptone, 0.75% yeast extract, 0.75% NaCl, 0.3% NaH2PO4, and 0.75% glucose was used for M. luteus. Bacteria were grown overnight to the early stationary phase and adjusted in corresponding culture medium to 5.0 × 10^5 CFU mL^−1 in the wells of 96‐well microtiter plates, mixed with varying concentrations of test compounds, and incubated at 37 °C for 24 h. Cell growth was evaluated by measuring the optical density at 600 nm, and the MIC was defined as the lowest compound concentration at which no bacterial growth was observed.
(§3) Table S3. MIC Values of Several Lanthipeptides Against Microorganisms
(§4) MIC* mg/L(μM) M. luteus E. faecalis S. aureus MRSA
(§5) Note: * The test lanthipeptide is a mixture of different dehydration molecules . Quantification of
(§6) lanthipeptides was performed using the eight-fold dehydrated molecules (n=3). The data

[2] = system: E. faecalis (clinical pathogenic strain); experiment: MIC determination in 96-well plates; assay type: cell-based, Enterococcus faecalis; conditions: for MIC E. faecalis: 96-well plate, MHB broth, 5.0 × 10^5 CFU mL^−1, 37 °C, 24 h, OD600, quantified as eight-fold dehydrated molecules, n=3
Description: as §1, §2, §3, §4, §5, §6

[3] = system: S. aureus (clinical pathogenic strain); experiment: MIC determination in 96-well plates; assay type: cell-based, Staphylococcus aureus; conditions: 96-well plate, MHB broth, 5.0 × 10^5 CFU mL^−1, 37 °C, 24 h, OD600, quantified as eight-fold dehydrated molecules, n=3
Description: as §1, §2, §3, §4, §5, §6

[4] = system: MRSA (clinical pathogenic strain); experiment: MIC determination in 96-well plates; assay type: cell-based, methicillin‐resistant S. aureus; conditions: 96-well plate, MHB broth, 5.0 × 10^5 CFU mL^−1, 37 °C, 24 h, OD600, quantified as eight-fold dehydrated molecules, n=3
Description: as §1, §2, §3, §4, §5, §6

E. coli DH5α = E. coli DH5α growth (OD600) in LB medium with EDTA and purified lanthipeptide; assay type: cell-based, Escherichia coli
Method: Figure 4 Screening of nisin mutants using the CFPS system. A) Schematic illustration of the screening for nisin mutants. B) Nisin and nisin mutants. Dha, dehydrolalanine; Dhb, dehydrobutyrine; Abu, 2‐aminobutyric acid. C) Heat‐map of antimicrobial activity of nisin mutants against E. coli in the second round of screening. After adding the CFPS mixture to E. coli and incubating for 8 h, the ΔOD600 value represents the OD600 of E. coli with added nisin mutant CFPS mixture minus the OD600 (control group) of E. coli with nisin CFPS mixture in the same plate. Yellow areas represent an inhibitory effect on E. coli. […] The test lanthipeptide is a mixture of different dehydration molecules, quantification of lanthipeptides was performed using the eightfold dehydrated molecules. […]
Next, to verify the reliability of the CFPS platform for screening, abundant lanthipeptides are required to characterize the structure and anti‐E. coli ability of the mutants. […] The structures were identified by LC‐MS‐MS (Figure 4B; Figure S6, Supporting Information) and the […] rings were detected by NEM reaction (Figure S7, Supporting Information). […]
Figure S8. OD600 of E. coli DH5α in LB Medium with Different Concentrations of EDTA and Nisin after 18 h of Co-culture (n=3) ΔOD600 indicates the difference between readings with different concentrations of blank media. […]

[5] = mixture of dehydration molecules quantified as eight-fold dehydrated molecules
[6] = value in parentheses, quantified as eight-fold dehydrated molecules
[7] = summary of Table S3 in the text

| Substance | antibacterial activity of CFPS mixture on M. luteus plate (in words) [1] | MIC M. luteus (M. luteus; [5]) [µg/mL] | MIC M. luteus (M. luteus; [6]) [µM] | MIC E. faecalis [2] [µg/mL] | MIC E. faecalis ([2]; value in parentheses) [µM] | MIC S. aureus [3] [µg/mL] | MIC S. aureus ([3]; value in parentheses) [µM] | MIC MRSA [4] [µg/mL] | MIC MRSA ([4]; value in parentheses) [µM] | inhibition of E. coli DH5α growth with EDTA (OD600) (E. coli DH5α; 320 μM EDTA, nisin Z 24, 48, 96 μM, 18 h co-culture, n=3 (Figure S8)) | inhibition of E. coli DH5α growth at 20-fold the reported nisin concentration (E. coli DH5α; 18 h co-culture (Figure S8)) | antibacterial activity against M. luteus (in words) (M. luteus; [7]) | antibacterial activity against E. faecalis (in words) [2, 7] |
| --- | --- | --- | --- | --- | --- | --- | --- | --- | --- | --- | --- | --- | --- |
| Nisin Z: type I lanthipeptide nisin Z, synthesized by CFPS or from mLanA expressed in E. coli (I[Dhb]SI[Dha]LCTPGCKTGALMGCNMKTATCNCSIHV[Dha]K; cysteine pairing not given here; also: lanthipeptide thioether crosslinks and dehydrated residues, positions not given here; UniProt P29559 24-57, looked up) [reference compound] | obvious zone of inhibition | 0.12 | 0.036 | 250 | 75.05 | 250 | 75.05 | 125 | 37.52 | obvious | did not exhibit |  |  |
| Nisin A: commercialized nisin, class I lanthipeptide, food preservative (I[Dhb]SI[Dha]LCTPGCKTGALMGCNMKTATCHCSIHV[Dha]K; cysteine pairing not given here; also: lanthipeptide thioether crosslinks and dehydrated residues, positions not given here; UniProt P13068 24-57, looked up) [reference compound] |  | 0.06 | 0.018 | 250 | 74.53 | 125 | 37.27 | 125 | 37.27 |  |  |  |  |
| VT SKSLC TPGCKTGILQT CAIKSAT CGC SIHIGK (bicyclic or more) [RL8, novel lanthipeptide, nisin analog, core peptide from Bacillus cereus] |  | 0.24 | 0.073 | 250 | 76.52 | > 250 | > 76.52 | > 250 | > 76.52 |  |  |  |  |
| IT SKSLC TPGCVTGVLMGCALKTIT CNC SVGIGKK (bicyclic or more) [RL14, novel lanthipeptide, nisin analog, core peptide from Enterococcus rotai/Enterococcus moraviensis] |  | 0.015 | 0.0045 | 62.5 | 18.69 | 250 | 74.75 | 250 | 74.75 |  |  | outperforming nisin | outperforming nisin |
| VT SISLC TPGCKTGILMT CAIKTAT CGCHF [Bagelicin] | contained anti‐M. luteus activity |  |  |  |  |  |  |  |  |  |  |  |  |
| IT SVSLC TPGCKTGALMGCNMKTAS CGCHVHVSK (bicyclic or more) [RL6, novel lanthipeptide, nisin analog, core peptide from Leuconostoc gelidum] |  | 0.12 | 0.037 | 250 | 76.17 | > 250 | > 76.17 | > 250 | > 76.17 |  |  |  |  |
| IT SKSLC TPGCKTGALMT CPIKTAT CGCHFGN (bicyclic or more) [RL13, novel lanthipeptide, nisin analog, core peptide from Streptococcus equinus] |  | 0.24 | 0.077 | 250 | 80.8 | > 250 | > 80.8 | > 250 | > 80.8 |  |  |  |  |
